{"source": "paper PMC7587356", "about": "“High-Throughput Screening for Inhibitors of the SARS-CoV-2 Protease Using a FRET-Biosensor” (Molecules, 2020)", "target": "SARS-CoV-2 3CLpro (Severe acute respiratory syndrome coronavirus 2, UniProt P0DTD1)", "test": "biochemical", "type": "biochemical", "parameters": "Replicate_1 / Replicate_2 / mean / mean (LOPAC_screen_w_protease): unit not given here", "details": "for inhibition at 5 µM: 4 h", "key": {"[1]": {"details": "sheet LOPAC_screen_w_protease, primary screen of LOPAC1280 at 5 µM with protease, mean of the two replicates"}, "[2]": {"details": "sheet LOPAC_screen_w_protease, primary screen of LOPAC1280 at 5 µM with protease, replicate 1"}, "[3]": {"details": "sheet LOPAC_screen_w_protease, primary screen of LOPAC1280 at 5 µM with protease, replicate 2"}, "[4]": {"details": "sheet LOPAC_screen_w_protease, LOPAC1280 at 5 µM, mean of two replicates, read-out: mean"}, "[5]": {"details": "sheet LOPAC_screen_w_protease, LOPAC1280 at 5 µM, replicate 1, read-out: Replicate_1"}, "[6]": {"details": "sheet LOPAC_screen_w_protease, LOPAC1280 at 5 µM, replicate 2, read-out: Replicate_2"}, "[7]": {"details": "sheet LOPAC_screen_w_protease, primary screen with protease, mean of two replicates"}, "[8]": {"details": "sheet LOPAC_screen_w_protease, primary screen with protease, replicate 1"}, "[9]": {"details": "sheet LOPAC_screen_w_protease, primary screen with protease, replicate 2"}, "[10]": {"details": "LOPAC1280 primary screen with protease, 5 µM compound, mean of the two replicates"}, "[11]": {"details": "LOPAC1280 primary screen with protease, 5 µM compound, replicate 1"}, "[12]": {"details": "LOPAC1280 primary screen with protease, 5 µM compound, replicate 2"}}, "note": "Counter-ions that a name gives are not always drawn. Like-named read-outs stand apart in the source and are kept apart here."}
{"compound": "C[N+]1(C)C2CCC1CC(OC(=O)c1c[nH]c3ccccc13)C2.[I-]", "note": "(stereo not drawn)", "values": [{"measurement": "mean", "setting": "[1]", "value": 3.717}, {"measurement": "Replicate_1", "setting": "[2]", "value": 3.9921}, {"measurement": "Replicate_2", "setting": "[3]", "value": 3.441}]}
{"compound": "CN(C)CCCO[C@@H]1[C@H]2OC(C)(C)O[C@H]2O[C@@H]1[C@H](O)CO", "note": "[Amiprilose hydrochloride]", "values": [{"measurement": "inhibition at 5 µM", "setting": "[4]", "value": 1.08, "unit": "%"}, {"measurement": "inhibition at 5 µM", "setting": "[5]", "value": 1.63, "unit": "%"}, {"measurement": "inhibition at 5 µM", "setting": "[6]", "value": 0.526, "unit": "%"}]}
{"compound": "CC(=O)Oc1ccccc1C(=O)O", "note": "[Acetylsalicylic acid]", "values": [{"measurement": "inhibition at 5 µM", "setting": "LOPAC1280 primary screen with protease, 5 µM compound, replicate 1, read-out: Replicate_1 (LOPAC_screen_w_protease)", "value": 1.9, "unit": "%"}, {"measurement": "inhibition at 5 µM", "setting": "LOPAC1280 primary screen with protease, 5 µM compound, replicate 2, read-out: Replicate_2 (LOPAC_screen_w_protease)", "value": 1.38, "unit": "%"}, {"measurement": "mean (LOPAC_screen_w_protease)", "setting": "LOPAC1280 primary screen with protease, 5 µM compound, mean of two replicates", "value": 1.637}]}
{"compound": "Oc1ccc2c3c1O[C@H]1[C@@H](O)CC[C@@]4(O)[C@@H](C2)N(CC2CCC2)CC[C@]314", "note": "[Nalbuphine hydrochloride]", "values": [{"measurement": "inhibition at 5 µM", "setting": "read-out: Replicate_1", "value": 4.1, "unit": "%"}, {"measurement": "inhibition at 5 µM", "setting": "read-out: Replicate_2", "value": 4.27, "unit": "%"}, {"measurement": "inhibition at 5 µM", "setting": "read-out: mean", "value": 4.19, "unit": "%"}]}
{"compound": "c1ccc2c(c1)CCCC2C1=NCCN1", "note": "(stereo not drawn) [Tetrahydrozoline hydrochloride]", "values": [{"measurement": "inhibition at 5 µM", "setting": "sheet LOPAC_screen_w_protease, primary screen with protease, mean of two replicates, read-out: mean", "value": 2.26, "unit": "%"}, {"measurement": "inhibition at 5 µM", "setting": "sheet LOPAC_screen_w_protease, primary screen with protease, replicate 1, read-out: Replicate_1", "value": 1.87, "unit": "%"}, {"measurement": "inhibition at 5 µM", "setting": "sheet LOPAC_screen_w_protease, primary screen with protease, replicate 2, read-out: Replicate_2", "value": 2.65, "unit": "%"}]}
{"compound": "C[N+]1(C)CCOC(O)(c2ccc(-c3ccc(C4(O)C[N+](C)(C)CCO4)cc3)cc2)C1", "note": "(stereo not drawn) [Hemicholinium-3]", "values": [{"measurement": "inhibition at 5 µM", "setting": "sheet LOPAC_screen_w_protease, primary screen with protease, compound at 5 µM, mean of two replicates, read-out: mean", "value": 2.72, "unit": "%"}, {"measurement": "inhibition at 5 µM", "setting": "sheet LOPAC_screen_w_protease, primary screen with protease, compound at 5 µM, replicate 1, read-out: Replicate_1", "value": 4.37, "unit": "%"}, {"measurement": "inhibition at 5 µM", "setting": "sheet LOPAC_screen_w_protease, primary screen with protease, compound at 5 µM, replicate 2, read-out: Replicate_2", "value": 1.08, "unit": "%"}]}
{"compound": "C[N+]1(C)[C@@H]2CC[C@H]1C[C@@H](OC(=O)C(CO)c1ccccc1)C2", "note": "(stereo partly drawn) [Atropine methyl nitrate]", "values": [{"measurement": "inhibition at 5 µM", "setting": "sheet LOPAC_screen_w_protease, primary screen with protease, 5 µM, mean of two replicates, read-out: mean", "value": -0.0687, "unit": "%"}, {"measurement": "inhibition at 5 µM", "setting": "sheet LOPAC_screen_w_protease, primary screen with protease, 5 µM, replicate 1, read-out: Replicate_1", "value": 0.687, "unit": "%"}, {"measurement": "inhibition at 5 µM", "setting": "sheet LOPAC_screen_w_protease, primary screen with protease, 5 µM, replicate 2, read-out: Replicate_2", "value": -0.825, "unit": "%"}]}
{"compound": "CCOC(=O)c1ncn2c1[C@@H]1CCCN1C(=O)c1cc(OC)ccc1-2", "note": "[L-655,708]", "values": [{"measurement": "mean", "setting": "sheet LOPAC_screen_w_protease, LOPAC1280 at 5 µM, mean of two replicates", "value": 1.109}, {"measurement": "Replicate_1", "setting": "sheet LOPAC_screen_w_protease, LOPAC1280 at 5 µM, replicate 1", "value": 1.0635}, {"measurement": "Replicate_2", "setting": "sheet LOPAC_screen_w_protease, LOPAC1280 at 5 µM, replicate 2", "value": 1.155}]}
{"compound": "C[N+](C)(C)CCO.[Br-]", "note": "[Choline bromide]", "values": [{"measurement": "Replicate_1", "value": 2.262}, {"measurement": "Replicate_2", "value": 3.547}, {"measurement": "mean", "value": 2.905}]}
{"compound": "C[N+](C)(C)CC#CCOC(=O)Nc1cccc(Cl)c1.[Cl-]", "note": "[McN-A-343]", "values": [{"measurement": "mean", "setting": "[1]", "value": 3.792}, {"measurement": "Replicate_1", "setting": "[2]", "value": 2.713}, {"measurement": "Replicate_2", "setting": "[3]", "value": 4.871}]}
{"compound": "NCCCS(=O)(=O)O.[Na]", "note": "[3-Amino-1-propanesulfonic acid sodium]", "values": [{"measurement": "mean", "setting": "sheet LOPAC_screen_w_protease, LOPAC1280 primary screen with protease, 5 µM compound, mean of the two replicates", "value": 5.742}, {"measurement": "Replicate_1", "setting": "sheet LOPAC_screen_w_protease, LOPAC1280 primary screen with protease, 5 µM compound, replicate 1", "value": 6.514}, {"measurement": "Replicate_2", "setting": "sheet LOPAC_screen_w_protease, LOPAC1280 primary screen with protease, 5 µM compound, replicate 2", "value": 4.97}]}
{"compound": "CCCN(CC1CC1)c1nc(C)nc(Nc2c(Cl)cc(Cl)cc2Cl)c1Cl", "note": "[NBI 27914]", "values": [{"measurement": "mean", "setting": "[7]", "value": 2.264}, {"measurement": "Replicate_1", "setting": "[8]", "value": 4.203}, {"measurement": "Replicate_2", "setting": "[9]", "value": 0.3255}]}
{"compound": "C=CC[N+](C)(C)c1ccc(CCC(=O)CCc2ccc([N+](C)(C)CC=C)cc2)cc1.[Br-].[Br-]", "note": "[BW 284c51]", "values": [{"measurement": "Replicate_1", "value": 2.051}, {"measurement": "Replicate_2", "value": 3.598}, {"measurement": "mean", "value": 2.825}]}
{"compound": "CN(C)CCOC(=O)COc1ccc(Cl)cc1", "note": "[Centrophenoxine hydrochloride]", "values": [{"measurement": "inhibition at 5 µM", "setting": "[4]", "value": 1.27, "unit": "%"}, {"measurement": "inhibition at 5 µM", "setting": "[5]", "value": 1.82, "unit": "%"}, {"measurement": "inhibition at 5 µM", "setting": "[6]", "value": 0.724, "unit": "%"}]}
{"compound": "C[N+]1(C)CCC(OC(=O)C(c2ccccc2)c2ccccc2)CC1.[I-]", "note": "[4-DAMP methiodide]", "values": [{"measurement": "mean", "setting": "[7]", "value": 2.136}, {"measurement": "Replicate_1", "setting": "[8]", "value": 2.4758}, {"measurement": "Replicate_2", "setting": "[9]", "value": 1.796}]}
{"compound": "C=CCN1CC[C@]23c4c5ccc(O)c4O[C@H]2/C(=N/NC(=O)c2ccccc2)CC[C@@]3(O)[C@H]1C5", "note": "[Naloxone benzoylhydrazone]", "values": [{"measurement": "inhibition at 5 µM", "setting": "read-out: Replicate_1", "value": 2.85, "unit": "%"}, {"measurement": "inhibition at 5 µM", "setting": "read-out: Replicate_2", "value": 4.95, "unit": "%"}, {"measurement": "inhibition at 5 µM", "setting": "read-out: mean", "value": 3.9, "unit": "%"}]}
{"compound": "C#CC(N)CCC(=O)O", "note": "(stereo not drawn) [gamma-Acetylinic GABA]", "values": [{"measurement": "mean", "setting": "[7]", "value": 2.242}, {"measurement": "Replicate_1", "setting": "[8]", "value": 2.252}, {"measurement": "Replicate_2", "setting": "[9]", "value": 2.232}]}
{"compound": "N[C@@H](Cc1ccc(F)cc1)C(=O)O", "note": "[p-Fluoro-L-phenylalanine]", "values": [{"measurement": "mean (LOPAC_screen_w_protease)", "setting": "[10]", "value": 2.051}, {"measurement": "Replicate_1 (LOPAC_screen_w_protease)", "setting": "[11]", "value": 4.147}, {"measurement": "Replicate_2 (LOPAC_screen_w_protease)", "setting": "[12]", "value": -0.04537}]}
{"compound": "CC(C)Cc1ccc(C(C)C(=O)O)cc1", "note": "(racemic) [(±)-Ibuprofen]", "values": [{"measurement": "mean (LOPAC_screen_w_protease)", "setting": "[10]", "value": 1.9945}, {"measurement": "Replicate_1 (LOPAC_screen_w_protease)", "setting": "[11]", "value": 3.023}, {"measurement": "Replicate_2 (LOPAC_screen_w_protease)", "setting": "[12]", "value": 0.9655}]}
